{"source": "the supplement of paper PMC9763283", "experiment_in_all_cases": "area under growth-rate inhibition curve (AUC GRI) (dimensionless (GR-based AUC)); higher = less growth inhibition", "details_in_all_cases": "exposure time: 72 h; concentrations: 0.1, 1, 10 uM", "key": {"BT474-LTR": {"tested_on": "BT474-LTR", "how_it_was_run": "(§1)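 The area under the growth-rate inhibition curve was measured in six breast cancer cell line models, covering triple-negative lines and HER2+ lines, both parental and resistant to a two-drug combination. Cells were exposed to compound at 0.1, 1 or 10 µM for 72 h, fixed in 4% paraformaldehyde, and nuclei were stained with Hoechst 33342 or DAPI for imaging and counting. Day 0 plates, untreated Day 3 plates and DMSO controls served to correct growth across 2 biological replicates.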"}, "MDA-MB-231": {"tested_on": "MDA-MB-231", "how_it_was_run": "as §1"}, "MDA-MB-468": {"tested_on": "MDA-MB-468", "how_it_was_run": "as §1"}, "SKBR3-LTR": {"tested_on": "SKBR3-LTR", "how_it_was_run": "as §1"}, "BT474-P": {"tested_on": "BT474-P", "how_it_was_run": "as §1"}, "SKBR3-P": {"tested_on": "SKBR3-P", "how_it_was_run": "as §1"}}, "data": [{"smiles": "Clc1ccc2c(c1)CCc1cccnc1C2=C1CCNCC1", "note": "[Desloratadine]", "values": [{"measurement": "area under growth-rate inhibition curve", "setting": "BT474-LTR", "result": 1.07}, {"measurement": "area under growth-rate inhibition curve", "setting": "MDA-MB-231", "result": 1}, {"measurement": "area under growth-rate inhibition curve", "setting": "MDA-MB-468", "result": 0.988}, {"measurement": "area under growth-rate inhibition curve", "setting": "SKBR3-LTR", "result": 1.03}, {"measurement": "area under growth-rate inhibition curve", "setting": "BT474-P", "result": 0.984}, {"measurement": "area under growth-rate inhibition curve", "setting": "SKBR3-P", "result": 0.998}]}, {"smiles": "N=C(N)NCCC[C@@H](NC(=O)[C@@H]1CCCN1C(=O)[C@@H]1CSSCCC(=O)N[C@@H](Cc2ccc(O)cc2)C(=O)N[C@@H](Cc2ccccc2)C(=O)N[C@@H](CCC(N)=O)C(=O)N[C@@H](CC(N)=O)C(=O)N1)C(=O)NCC(N)=O", "note": "[Desmopressin]", "values": [{"measurement": "area under growth-rate inhibition curve", "setting": "BT474-LTR", "result": 0.999}, {"measurement": "area under growth-rate inhibition curve", "setting": "MDA-MB-231", "result": 1.01}, {"measurement": "area under growth-rate inhibition curve", "setting": "MDA-MB-468", "result": 1.02}, {"measurement": "area under growth-rate inhibition curve", "setting": "SKBR3-LTR", "result": 1.01}, {"measurement": "area under growth-rate inhibition curve", "setting": "BT474-P", "result": 0.995}, {"measurement": "area under growth-rate inhibition curve", "setting": "SKBR3-P", "result": 1.02}]}, {"smiles": "CN(C)CC(c1ccc(O)cc1)C1(O)CCCCC1.O=C(O)CCC(=O)O", "note": "(stereo unspecified) [Desvenlafaxine Succinate]", "values": [{"measurement": "area under growth-rate inhibition curve", "setting": "BT474-LTR", "result": 1.09}, {"measurement": "area under growth-rate inhibition curve", "setting": "MDA-MB-231", "result": 1.02}, {"measurement": "area under growth-rate inhibition curve", "setting": "MDA-MB-468", "result": 1.05}, {"measurement": "area under growth-rate inhibition curve", "setting": "SKBR3-LTR", "result": 1.08}, {"measurement": "area under growth-rate inhibition curve", "setting": "BT474-P", "result": 1.06}, {"measurement": "area under growth-rate inhibition curve", "setting": "SKBR3-P", "result": 1.01}]}, {"smiles": "CN(C)CC(c1ccc(O)cc1)C1(O)CCCCC1", "note": "(stereo unspecified) [Desvenlafaxine]", "values": [{"measurement": "area under growth-rate inhibition curve", "setting": "BT474-LTR", "result": 1.07}, {"measurement": "area under growth-rate inhibition curve", "setting": "MDA-MB-231", "result": 1}, {"measurement": "area under growth-rate inhibition curve", "setting": "MDA-MB-468", "result": 1.03}, {"measurement": "area under growth-rate inhibition curve", "setting": "SKBR3-LTR", "result": 1.05}, {"measurement": "area under growth-rate inhibition curve", "setting": "BT474-P", "result": 1.03}, {"measurement": "area under growth-rate inhibition curve", "setting": "SKBR3-P", "result": 1}]}, {"smiles": "Cc1cccc(Cc2cnc[nH]2)c1C.Cl", "note": "[Detomidine HCl]", "values": [{"measurement": "area under growth-rate inhibition curve", "setting": "BT474-LTR", "result": 1.04}, {"measurement": "area under growth-rate inhibition curve", "setting": "MDA-MB-231", "result": 1.03}, {"measurement": "area under growth-rate inhibition curve", "setting": "MDA-MB-468", "result": 1.02}, {"measurement": "area under growth-rate inhibition curve", "setting": "SKBR3-LTR", "result": 1.08}, {"measurement": "area under growth-rate inhibition curve", "setting": "BT474-P", "result": 1.01}, {"measurement": "area under growth-rate inhibition curve", "setting": "SKBR3-P", "result": 0.991}]}, {"smiles": "Cc1cccc(C(C)c2c[nH]cn2)c1C", "note": "(stereo unspecified) [Dexmedetomidine]", "values": [{"measurement": "area under growth-rate inhibition curve", "setting": "BT474-LTR", "result": 1.1}, {"measurement": "area under growth-rate inhibition curve", "setting": "MDA-MB-231", "result": 1.04}, {"measurement": "area under growth-rate inhibition curve", "setting": "MDA-MB-468", "result": 1.02}, {"measurement": "area under growth-rate inhibition curve", "setting": "SKBR3-LTR", "result": 1.04}, {"measurement": "area under growth-rate inhibition curve", "setting": "BT474-P", "result": 1.04}, {"measurement": "area under growth-rate inhibition curve", "setting": "SKBR3-P", "result": 1.04}]}, {"smiles": "Br.COc1ccc2c(c1)[C@@]13CCCCC1C(C2)N(C)CC3", "note": "(stereo partly specified) [Dextromethorphan hydrobromide]", "values": [{"measurement": "area under growth-rate inhibition curve", "setting": "BT474-LTR", "result": 1.04}, {"measurement": "area under growth-rate inhibition curve", "setting": "MDA-MB-231", "result": 1.04}, {"measurement": "area under growth-rate inhibition curve", "setting": "MDA-MB-468", "result": 1.03}, {"measurement": "area under growth-rate inhibition curve", "setting": "SKBR3-LTR", "result": 1.06}, {"measurement": "area under growth-rate inhibition curve", "setting": "BT474-P", "result": 1.01}, {"measurement": "area under growth-rate inhibition curve", "setting": "SKBR3-P", "result": 1.02}]}, {"smiles": "CC12CCC3=C4CCC(=O)C=C4CCC3C1CCC2(O)CC#N", "note": "(stereo unspecified) [Dienogest]", "values": [{"measurement": "area under growth-rate inhibition curve", "setting": "BT474-LTR", "result": 1.12}, {"measurement": "area under growth-rate inhibition curve", "setting": "MDA-MB-231", "result": 1.03}, {"measurement": "area under growth-rate inhibition curve", "setting": "MDA-MB-468", "result": 1.03}, {"measurement": "area under growth-rate inhibition curve", "setting": "SKBR3-LTR", "result": 1.04}, {"measurement": "area under growth-rate inhibition curve", "setting": "BT474-P", "result": 1.05}, {"measurement": "area under growth-rate inhibition curve", "setting": "SKBR3-P", "result": 1.01}]}, {"smiles": "CCCC(=O)O[C@]1(C(=O)COC(C)=O)CC[C@H]2[C@@H]3C[C@H](F)C4=CC(=O)C=C[C@]4(C)[C@@]3(F)[C@@H](O)C[C@@]21C", "note": "[Difluprednate]", "values": [{"measurement": "area under growth-rate inhibition curve", "setting": "BT474-LTR", "result": 1.02}, {"measurement": "area under growth-rate inhibition curve", "setting": "MDA-MB-231", "result": 0.975}, {"measurement": "area under growth-rate inhibition curve", "setting": "MDA-MB-468", "result": 1.03}, {"measurement": "area under growth-rate inhibition curve", "setting": "SKBR3-LTR", "result": 1.04}, {"measurement": "area under growth-rate inhibition curve", "setting": "BT474-P", "result": 0.976}, {"measurement": "area under growth-rate inhibition curve", "setting": "SKBR3-P", "result": 0.939}]}, {"smiles": "CN1C[C@H](C(=O)N[C@]2(C)O[C@@]3(O)[C@@H]4CCCN4C(=O)[C@H](Cc4ccccc4)N3C2=O)C[C@@H]2c3cccc4[nH]cc(c34)C[C@H]21.CS(=O)(=O)O", "note": "[Dihydroergotamine mesylate]", "values": [{"measurement": "area under growth-rate inhibition curve", "setting": "BT474-LTR", "result": 1.01}, {"measurement": "area under growth-rate inhibition curve", "setting": "MDA-MB-231", "result": 0.986}, {"measurement": "area under growth-rate inhibition curve", "setting": "MDA-MB-468", "result": 1.02}, {"measurement": "area under growth-rate inhibition curve", "setting": "SKBR3-LTR", "result": 1.05}, {"measurement": "area under growth-rate inhibition curve", "setting": "BT474-P", "result": 0.974}, {"measurement": "area under growth-rate inhibition curve", "setting": "SKBR3-P", "result": 0.947}]}, {"smiles": "COS(=O)(=O)[O-].C[N+]1(C)CCC(=C(c2ccccc2)c2ccccc2)CC1", "note": "[Diphemanil Methylsulfate]", "values": [{"measurement": "area under growth-rate inhibition curve", "setting": "BT474-LTR", "result": 1.03}, {"measurement": "area under growth-rate inhibition curve", "setting": "MDA-MB-231", "result": 1.03}, {"measurement": "area under growth-rate inhibition curve", "setting": "MDA-MB-468", "result": 1.01}, {"measurement": "area under growth-rate inhibition curve", "setting": "SKBR3-LTR", "result": 1.03}, {"measurement": "area under growth-rate inhibition curve", "setting": "BT474-P", "result": 1.05}, {"measurement": "area under growth-rate inhibition curve", "setting": "SKBR3-P", "result": 0.971}]}]}
